For 18 compounds, IC50 results are on record in US20110098309A1, “METHODS OF INHIBITING THE FORMATION OF AMYLOID-BETA DIFFUSABLE LIGANDS USING ACYLHYDRAZIDE COMPOUNDS” (priority 2007, published 2011).

Molecules are shown by their SMILES.

Sequence of Aβ1-42 (P05067 672-713 limits assumed): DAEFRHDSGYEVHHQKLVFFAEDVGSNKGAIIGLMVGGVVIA

This assay has as its target Aβ1-42 (Homo sapiens, UniProt P05067). In words: FRET assay of Aβ1-42 oligomer (ADDL) assembly inhibition. To be noted: 0.2 μM FITC-Aβ(1-42) and 0.8 μM Aβ(1-42), 37° C., six concentrations from about 10 μM to about 0.03 μM. In kind it is biochemical. An excerpt: Fluorescence (or Förster) Resonance Energy Transfer (FRET) is a distance-dependent, non-radiative transfer of energy in which the de-excitation of one fluorophore (donor) is coupled to excitation of another fluorophore (acceptor). FRET occurs if (1) the quantum of energy emitted by a donor fluorophore corresponds to an acceptor fluorophore's excitation energy, (2) the orientations of donor and acceptor transition dipoles are nearly parallel and (3) the donor fluorescent emission spectrum overlaps the acceptor absorption spectrum.
In this assay, assembly of Aβ1-42 oligomer formation is monitored by FRET using N-terminal conjugates of fluorescein-Aβ1-42 as both the donor and acceptor fluorophore (fluorescein-fluorescein Ro˜45 Å). […] Inhibition of Aβ1-42 assembly is observed as the absence or attenuation of fluorescein quenching.
FRET and FP assays are performed in 384-well Corning Non-Binding Surface, black, opaque microtiter plates, and the assay buffer consists of 25 mM MOPS-Tris (pH 8.0) with 100 mM MgCl2. The assay volume, containing 0.2 μM FITC-Aβ(1-42) and 0.8 μM Aβ(1-42), is 50 μl and the temperature is 37° C. […] Kinetic traces are collected by recording fluorescence intensity and polarization readings every five minutes over about a three hour time course. […] Positive control reactions contain all buffer components in the absence of added small molecule or antibody reagents. To test for ADDL assembly inhibition, the compound was incubated with the peptide mixture at six concentrations from about 10 μM decreasing to about 0.03 μM.
One may read the IC50 as the point on the concentration scale where inhibition reaches its midpoint. Compound `COc1ccc(O)c(/C=N/NC(=O)c2ccc(-n3cccc3)cc2O)c1` [Compound 36, 2-hydroxy-N′-(2-hydroxy-5-methoxy-benzylidene)-4-(1H-pyrrol-1-yl) benzohydrazide] gave a concentration for half-maximal inhibition (IC50) of 1 µM.

As to `COc1ccc(O)c(/C=N/NC(=O)c2cc3ccccc3cc2O)c1` [Compound 37, 3-hydroxy-N′-(2-hydroxy-5-methoxy-benzylidene)-2-naphtho hydrazide], the IC50 was 1.2 µM.

`COc1ccc(O)c(/C=N/NC(=O)c2ccc3ccccc3c2O)c1` [Compound 38, 1-hydroxy-N′-(2-hydroxy-5-methoxybenzylidene)-2-naphtho-hydrazide] came in with an IC50 of 1.2 µM.

The compound `O=C(N/N=C/c1cc(Br)cc(I)c1O)c1cccc(F)c1` [Compound 39, N′-(5-bromo-2-hydroxy-3-iodobenzylidene)-3-fluoro-benzohydrazide] had an IC50 of 1.6 µM.

Turning to `O=C(N/N=C/c1cc(F)cc(Cl)c1O)c1ccccc1O` [Compound 40, N′-(3-chloro-5-fluoro-2-hydroxybenzylidene)-2-hydroxy-benzohydrazide], the IC50 turned out to be 2.1 µM.

`O=C(N/N=C/c1c(O)cccc1O)c1ccccc1O` [Compound 41, N′-(2,6-dihydroxybenzylidene)-2-hydroxy benzohydrazide] gave an IC50 of 2.3 µM.

`O=C(N/N=C/c1cc(Br)cc(Br)c1O)c1ccccc1O` [Compound 42, N′-(3,5-dibromo-2-hydroxybenzylidene)-2-hydroxybenzohydrazide]: the IC50 was 2.8 µM.

Turning to `O=C(N/N=C/c1c(O)ccc2ccccc12)c1ccccc1NS(=O)(=O)c1ccc(Cl)cc1` [Compound 43, 4-chloro-N-(2-(2-((2-hydroxynaphthalen-1-yl)methylene)hydrazinecarbonyl)phenyl) benzenesulfonamide], the IC50 is 3.2 µM.

In turn, `COc1ccc(O)c(/C=N/NC(=O)c2[nH]c3ccccc3c2Cl)c1` [Compound 44, 3-chloro-N′-(2-hydroxy-5-methoxybenzylidene)-1H-indole-2-carbohydrazide] returned an IC50 of 3.2 µM.

Compound `O=C(N/N=C/c1c(O)cccc1Br)c1ccccc1O` [Compound 45, N′-(2-bromo-6-hydroxybenzylidene)-2-hydroxybenzo-hydrazide] came in with an IC50 of 3.3 µM.

Compound `O=C(N/N=C/c1cc(C2CCCCC2)cc(Cl)c1O)c1ccccc1O` [Compound 46, N′-(3-chloro-5-cyclohexyl-2-hydroxybenzylidene)-2-hydroxybenzo-hydrazide] came in with a concentration for half-maximal inhibition (IC50) of 3.3 µM.

Take `CC(C)(C)c1ccc(O)c(/C=N/NC(=O)c2ccccc2O)c1` [Compound 47, N′-(5-tert-butyl-2-hydroxybenzylidene)-2-hydroxy-benzohydrazide]: inhibition was half-maximal at 3.5 µM (IC50).

`COc1cccc(-c2ccc(O)c(/C=N/NC(=O)c3ccccc3O)c2)c1` [Compound 48, 2-hydroxy-N′-((4-hydroxy-3′-methoxybiphenyl-3-yl)methylene) benzohydrazide] yielded an IC50 of 3.7 µM.

With `Cc1occc1C(=O)N/N=C/c1cc(Br)cc(Br)c1O` [Compound 49, N′-(3,5-dibromo-2-hydroxy-benzylidene)-2-methylfuran-3-carbohydrazide], the midpoint of inhibition, the IC50, lay at 3.8 µM.

The compound `O=C(N/N=C/c1cc(Br)ccc1O)c1ccccc1O` [Compound 50, N′-(5-bromo-2-hydroxy-benzylidene)-2-hydroxybenzohydrazide] registered an IC50 of 4.1 µM.

Compound `COc1ccc(O)c(/C=N/NC(=O)c2ccc(Cl)cc2O)c1` [Compound 51, 4-chloro-2-hydroxy-N′-(2-hydroxy-5-methoxy-benzylidene)benzohydrazide] yielded an IC50 of 4.2 µM.

`COc1ccc(O)c(/C=N/NC(=O)c2cccc3c2NC(=O)C3)c1` [Compound 52, N′-(2-hydroxy-5-methoxy-benzylidene)-2-oxoindoline-7-carbohydrazide] yielded a half-maximal inhibitory concentration (IC50) of 4.2 µM.

Compound `Cc1ccc(C(=O)N/N=C/c2cccc(C)c2O)cn1` [Compound 53, N′-(2-hydroxy-3-methyl-benzylidene)-6-methylnicotino-hydrazide] gave an IC50 of 4.6 µM.
